Results reported in patent US5232933A, “Method for treatment of neurodegenerative diseases” (R. J. Reynolds Tobacco Company, priority 1992, dated 1993).

Molecular target: high affinity nicotinic receptors
Assay: Inhibition of L-[3H]nicotine binding to mouse brain membranes
Set-up: species or system Mice (DBA strain)
Settings: 2 hr incubation at 4° C., Ki calculated from IC50 by method of Cheng
Method: Mice (DBA strain) were maintained on a 12 hour light/dark cycle and were allowed free access to water and food supplied by Wayne Lab Blox, Madison, Wis. Animals used in the present studies were 60 to 90 days of age and weighed 20 to 25 g. Brain membrane preparations were obtained from pooled brain tissue of both males and females.
Mice were killed by cervical dislocation. Brains were removed and placed on an ice-cold platform. […] Protein was determined by the method of Lowry, et al., J. Biol. Chem., Vol. 193, pp. 265-275 (1951), using bovine serum albumin as the standard.
The binding of L-[^3 H]nicotine was measured using a modification of the method of Romano, et al., Science, Vol 210 pp. 647-650 (1980) as described previously by Marks, et al., Mol. Pharmacol., Vol. 30, pp. 427-436 (1986). The binding of L-[^3 H]nicotine was measured using a 2 hr. incubation at 4° C. […] Nonspecific binding was determined by inclusion of 10 μM nonradioactive nicotine in the incubations. The inhibition of L-[^3 H]nicotine binding by test compounds was determined by including one of eight different concentrations of the test compound in the incubation. […] Inhibition constant (Ki values) were calculated from the IC50 values using the method of Cheng, et al., Biochem. Pharmacol., Vol. 22, pp. 3099-3108 (1973). […]

## c1ccc(C2CCCN2)nc1 (racemic) [alpha-nornicotine]
  Ki: 5.7 µM
